# “Also recorded” adds a separate entry of the source.
# Experiments:
# Cl— channel (GABA-gated) = test: Radioligand binding, Cl- channel (GABA-gated); settings: antagonist radioligand
# Description: (§1) Melafenoxate was tested at 10^−5 M, calculated as a % inhibition of control specific binding of a radioactively labeled ligand specific for each target.
# (§2) This binding profile panel was broadly defined with roughly an equal number of selective, central and peripheral therapeutically relevant targets, including native animal tissues, radioligands and specific enzymes involved in cell cycle regulation in accordance with Eurofins Standard Operating Procedure.
# (§3) For radioligand binding experiments, the half maximal inhibitory concentration (IC50) and the half maximal effective concentration (EC50) values were determined (via computer software) by nonlinear regression analysis of the competition curves using Hill equation curve fitting. The inhibition constants (Ki) were calculated using the Cheng-Prusoff equation (Ki=IC50/(1+(L/KD)), where L is the concentration of radioligand in the assay, and KD is the affinity of the radioligand for the receptor.^49
# (§4) The results are expressed as a % control specific binding ([measured specific binding/control specific binding]×100) and as a % inhibition of control specific binding (100−[(measured specific binding/control specific binding)×100]) obtained in the presence of the test compounds. […]
# DAT (h) = molecular target: T1, DAT (h) (Homo sapiens, UniProt Q01959); test: Radioligand binding, DAT (h); settings: 10^−5 M; antagonist radioligand
# T1 construct: Eurofins
# T1 sequence (Q01959 whole entry): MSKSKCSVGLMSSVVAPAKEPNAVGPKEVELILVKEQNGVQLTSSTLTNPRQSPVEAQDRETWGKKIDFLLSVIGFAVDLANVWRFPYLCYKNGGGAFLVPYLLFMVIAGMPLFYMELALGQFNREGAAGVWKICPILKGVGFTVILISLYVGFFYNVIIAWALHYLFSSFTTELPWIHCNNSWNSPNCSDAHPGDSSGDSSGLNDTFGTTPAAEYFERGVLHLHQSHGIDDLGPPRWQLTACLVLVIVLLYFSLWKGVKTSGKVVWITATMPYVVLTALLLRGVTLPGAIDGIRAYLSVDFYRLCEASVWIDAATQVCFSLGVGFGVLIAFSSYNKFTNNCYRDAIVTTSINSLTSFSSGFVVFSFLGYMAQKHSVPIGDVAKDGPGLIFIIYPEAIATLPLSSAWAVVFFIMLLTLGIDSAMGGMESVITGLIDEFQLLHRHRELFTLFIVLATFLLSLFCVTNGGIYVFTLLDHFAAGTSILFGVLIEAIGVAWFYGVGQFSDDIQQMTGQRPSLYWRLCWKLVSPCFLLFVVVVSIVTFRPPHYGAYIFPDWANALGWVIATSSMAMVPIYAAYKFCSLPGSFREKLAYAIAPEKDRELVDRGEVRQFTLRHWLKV
# Description: as §1, §2, §3, §4
# C57BL/6J mice = test: Spontaneous locomotor activity in open-field; format: in vivo; settings: 3.125, 6.25, 12.5, 25, 50 and 100 mg/kg
# Description: Experiments were carried out on C57BL/6J mice.
# The effects of NLS-8 (6 doses) on spontaneous locomotor activity were examined. For this purpose, animals received an injection of NLS-8 (3.125, 6.25, 12.5, 25, 50 and 100 mg/kg) or its vehicle (Control group) (N=6/group) and were placed in an open-field for a 90-min session.
# Locomotor activity (distance travelled in the open-field during the first, second and third 30-min period following treatment) was automatically recorded.
# Data analysis: between group comparisons of all groups vs. the Control group: unpaired Student's t test.
# NET (h) = molecular target: T2, NET (h) (Homo sapiens, UniProt P23975); test: Radioligand binding, NET (h); settings: 10^−5 M; antagonist radioligand
# T2 construct: Eurofins
# T2 sequence (P23975 whole entry): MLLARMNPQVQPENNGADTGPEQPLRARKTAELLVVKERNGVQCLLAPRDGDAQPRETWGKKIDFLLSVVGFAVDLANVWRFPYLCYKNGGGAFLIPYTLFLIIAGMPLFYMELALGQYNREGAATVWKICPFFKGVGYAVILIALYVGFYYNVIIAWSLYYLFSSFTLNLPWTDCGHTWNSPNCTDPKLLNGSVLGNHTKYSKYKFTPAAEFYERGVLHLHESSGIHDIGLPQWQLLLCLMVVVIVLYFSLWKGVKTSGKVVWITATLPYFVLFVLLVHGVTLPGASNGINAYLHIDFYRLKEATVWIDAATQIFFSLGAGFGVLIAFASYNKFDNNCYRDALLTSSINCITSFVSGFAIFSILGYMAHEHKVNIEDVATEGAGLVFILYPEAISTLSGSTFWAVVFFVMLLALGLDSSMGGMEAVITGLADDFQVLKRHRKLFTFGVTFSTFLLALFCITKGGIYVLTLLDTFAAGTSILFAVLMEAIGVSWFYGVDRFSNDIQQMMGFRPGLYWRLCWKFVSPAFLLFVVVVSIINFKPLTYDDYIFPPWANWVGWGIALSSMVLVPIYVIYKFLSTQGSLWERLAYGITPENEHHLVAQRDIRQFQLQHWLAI
# Description: as §1, §2, §3, §4
# NK2 (h) = molecular target: T3, NK2 (h) (Homo sapiens, UniProt P21452); test: Radioligand binding, NK2 (h); settings: 10^−5 M; agonist radioligand
# T3 construct: CEREP (Eurofins, France)
# T3 sequence (P21452 1-398): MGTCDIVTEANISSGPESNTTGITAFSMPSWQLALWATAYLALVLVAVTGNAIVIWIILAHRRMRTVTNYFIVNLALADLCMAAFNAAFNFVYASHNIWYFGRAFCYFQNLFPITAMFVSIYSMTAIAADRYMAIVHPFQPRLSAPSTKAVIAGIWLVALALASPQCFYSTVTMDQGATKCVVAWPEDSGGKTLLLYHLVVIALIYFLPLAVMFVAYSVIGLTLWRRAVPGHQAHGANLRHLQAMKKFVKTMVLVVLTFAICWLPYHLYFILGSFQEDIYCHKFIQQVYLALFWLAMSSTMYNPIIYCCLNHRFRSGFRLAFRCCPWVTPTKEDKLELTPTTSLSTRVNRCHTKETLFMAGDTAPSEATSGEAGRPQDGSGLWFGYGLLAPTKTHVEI
# Description: as §1, §2, §3, §4
# 5-HT1A (h) = molecular target: T4, 5-HT1A (h) (Homo sapiens, UniProt P08908); test: Radioligand binding, 5-HT1A (h); settings: 10^−5 M; agonist radioligand
# T4 construct: CEREP (Eurofins, France)
# T4 sequence (P08908 1-422): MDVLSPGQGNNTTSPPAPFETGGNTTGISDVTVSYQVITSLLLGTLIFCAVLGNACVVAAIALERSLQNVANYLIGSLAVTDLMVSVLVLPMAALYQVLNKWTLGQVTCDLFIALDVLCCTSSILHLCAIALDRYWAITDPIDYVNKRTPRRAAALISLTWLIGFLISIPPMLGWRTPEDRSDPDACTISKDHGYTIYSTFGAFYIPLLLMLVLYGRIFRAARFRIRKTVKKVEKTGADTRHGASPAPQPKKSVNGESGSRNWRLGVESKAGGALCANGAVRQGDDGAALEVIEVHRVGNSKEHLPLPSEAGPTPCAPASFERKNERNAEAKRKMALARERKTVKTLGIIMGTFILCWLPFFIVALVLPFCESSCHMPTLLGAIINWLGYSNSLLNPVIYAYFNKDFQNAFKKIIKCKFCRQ
# Description: as §1, §2, §3, §4
smiles,measurement,setting,value
"O=C(COc1ccc(Cl)cc1)OCCNC12CC3CC(CC(C3)C1)C2 [Melafenoxate, 2-(1-adamantylamino)ethyl 2-(4-chlorophenoxy)acetate]",% Inhibition at 10^−5 M,Cl— channel (GABA-gated),13.5%
same,inhibition at 10 µM,DAT (h),20.9%
same,distance travelled in the open-field (locomotor activity) vs. Control group,"C57BL/6J mice; 90-min session, C57BL/6J mice, listed as NLS-8",did not significantly modify; also recorded: no significant
same,visible side effect,C57BL/6J mice; any dose tested,did not induce visible side effect
same,inhibition at 10 µM,NET (h),16.5%
same,inhibition at 10 µM,NK2 (h),33.5%
same,inhibition at 10 µM,5-HT1A (h),10.4%

# Source: patent US20250082598A1, “Melafenoxate, 2-(1-adamantylamino)ethyl 2-(4-chlorophenoxy)acetate and derivatives thereof for treating circadian rhythm sleep disorders with neurodegenerative diseases such as Alzheimer's disease” (NLS Pharmaceutics AG, priority 2021, published 2025)
